Assay results reported in patent publication US7994140B2, “Classes of compounds that interact with GPCRs” (Alchemia Limited, priority 2002, dated 2011).

Each molecule was assayed against T1, MC4 (Homo sapiens, UniProt P32245) (assay: GPCR radioligand binding (RLB) assay, melanocortin MC4, [125I]NDP-αMSH). Conditions: 4.0 Micromolar; Example Library 10.
T1 construct: purchased Perkin Elmer BioSignal; host or cells: HEK 293
Procedure, shortened: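 Membranes from HEK 293 cells expressing the recombinant human receptor were equilibrated with [125I]SST-14 (SST5) or [125I]NDP-αMSH (MC4), then compound added for an optimized incubation. Bound ligand separated by filtration on PEI-coated glass fiber and counted by liquid scintillation.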

T1 sequence (P32245 whole entry): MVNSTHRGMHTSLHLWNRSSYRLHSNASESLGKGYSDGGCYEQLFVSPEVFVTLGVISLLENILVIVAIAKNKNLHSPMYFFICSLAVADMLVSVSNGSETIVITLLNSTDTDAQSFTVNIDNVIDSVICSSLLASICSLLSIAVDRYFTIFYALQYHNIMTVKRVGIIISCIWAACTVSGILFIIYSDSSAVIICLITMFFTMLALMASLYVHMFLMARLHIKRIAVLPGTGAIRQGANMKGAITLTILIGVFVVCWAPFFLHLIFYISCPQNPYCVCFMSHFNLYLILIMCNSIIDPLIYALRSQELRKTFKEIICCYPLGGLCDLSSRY

Row | SMILES | MC4 Inhibition at 4.0 Micromolar
1 | NCCC(=O)N[C@H]1C(OCc2ccc(Cl)cc2)O[C@H](COCc2ccc(Cl)cc2)[C@@H](O)[C@@H]1OCc1ccc(Cl)cc1 (stereo partly drawn) [Compound 377] | + (Indicates inhibition greater than . . . 50%)
2 | NCCC(=O)N[C@H]1C(OCc2ccc(Cl)cc2)O[C@H](COCc2ccc3ccccc3c2)[C@@H](O)[C@@H]1OCc1ccc2ccccc2c1 (stereo partly drawn) [Compound 378] | + (Indicates inhibition greater than . . . 50%)
3 | NCCC(=O)N[C@H]1C(OCc2ccc(Cl)cc2)O[C@H](COCc2ccccc2)[C@@H](O)[C@@H]1OCc1ccc2ccccc2c1 (stereo partly drawn) [Compound 379] | + (Indicates inhibition greater than . . . 50%)
4 | NCC(=O)N[C@H]1C(OCc2ccc(Cl)cc2)O[C@H](COCc2ccccc2)[C@@H](O)[C@@H]1OCc1ccc2ccccc2c1 (stereo partly drawn) [Compound 380] | + (Indicates inhibition greater than . . . 50%)
5 | NCCC(=O)N[C@H]1C(OCc2ccc(Cl)cc2)O[C@H](COCc2ccc(Cl)cc2)[C@@H](O)[C@@H]1OCc1ccc2ccccc2c1 (stereo partly drawn) [Compound 381] | + (Indicates inhibition greater than . . . 50%)
6 | NCC(=O)N[C@H]1C(OCc2ccc(Cl)cc2)O[C@H](COCc2ccc(Cl)cc2)[C@@H](O)[C@@H]1OCc1ccc2ccccc2c1 (stereo partly drawn) [Compound 382] | + (Indicates inhibition greater than . . . 50%)
7 | NCCC(=O)N[C@H]1C(OCc2ccc(Cl)cc2)O[C@H](COCc2ccc3ccccc3c2)[C@@H](O)[C@@H]1OCc1ccccc1 (stereo partly drawn) [Compound 383] | + (Indicates inhibition greater than . . . 50%)
8 | NCC(=O)N[C@H]1C(OCc2ccc(Cl)cc2)O[C@H](COCc2ccccc2)[C@@H](O)[C@@H]1OCc1ccccc1 (stereo partly drawn) [Compound 384] | + (Indicates inhibition greater than . . . 50%)
9 | NCCC(=O)N[C@H]1C(OCc2ccc(Cl)cc2)O[C@H](COCc2ccc(Cl)cc2)[C@@H](O)[C@@H]1OCc1ccccc1 (stereo partly drawn) [Compound 385] | + (Indicates inhibition greater than . . . 50%)
10 | NCCCC(=O)N[C@H]1C(OCc2ccc(Cl)cc2)O[C@H](COCc2ccc3ccccc3c2)[C@@H](O)[C@@H]1OCc1ccc(Cl)cc1 (stereo partly drawn) [Compound 386] | + (Indicates inhibition greater than . . . 50%)
11 | NCCCC(=O)N[C@H]1C(OCc2ccc(Cl)cc2)O[C@H](COCc2ccccc2)[C@@H](O)[C@@H]1OCc1ccc(Cl)cc1 (stereo partly drawn) [Compound 387] | + (Indicates inhibition greater than . . . 50%)
12 | NCCCC(=O)N[C@H]1C(OCc2ccc(Cl)cc2)O[C@H](COCc2ccc(Cl)cc2)[C@@H](O)[C@@H]1OCc1ccc(Cl)cc1 (stereo partly drawn) [Compound 388] | + (Indicates inhibition greater than . . . 50%)
13 | NCCCC(=O)N[C@H]1C(OCc2ccc(Cl)cc2)O[C@H](COCc2ccc3ccccc3c2)[C@@H](O)[C@@H]1OCc1ccccc1 (stereo partly drawn) [Compound 395] | + (Indicates inhibition greater than . . . 50%)
14 | NCCCC(=O)N[C@H]1C(OCc2ccc(Cl)cc2)O[C@H](COCc2ccc(Cl)cc2)[C@@H](O)[C@@H]1OCc1ccccc1 (stereo partly drawn) [Compound 396] | + (Indicates inhibition greater than . . . 50%)

Same assay, conditions: 4.0 Micromolar; Example Library 11

Row | SMILES | MC4 Inhibition at 4.0 Micromolar
15 | NCCC(=O)NC1C(OCc2ccccc2)OC(COCc2ccc3ccccc3c2)C(O)C1OCc1ccc(Cl)cc1 (stereo not drawn) [Compound 397] | + (Indicates inhibition greater than . . . 50%)
16 | NCCC(=O)NC1C(OCc2ccccc2)OC(COCc2ccccc2)C(O)C1OCc1ccc(Cl)cc1 (stereo not drawn) [Compound 398] | + (Indicates inhibition greater than . . . 50%)
17 | NCCC(=O)NC1C(OCc2ccccc2)OC(COCc2ccc(Cl)cc2)C(O)C1OCc1ccc(Cl)cc1 (stereo not drawn) [Compound 399] | + (Indicates inhibition greater than . . . 50%)
18 | NCCC(=O)NC1C(OCc2ccccc2)OC(COCc2ccc3ccccc3c2)C(O)C1OCc1ccc2ccccc2c1 (stereo not drawn) [Compound 400] | + (Indicates inhibition greater than . . . 50%)
19 | NCCC(=O)NC1C(OCc2ccccc2)OC(COCc2ccccc2)C(O)C1OCc1ccc2ccccc2c1 (stereo not drawn) [Compound 401] | + (Indicates inhibition greater than . . . 50%)
20 | NCCC(=O)NC1C(OCc2ccccc2)OC(COCc2ccc(Cl)cc2)C(O)C1OCc1ccc2ccccc2c1 (stereo not drawn) [Compound 402] | + (Indicates inhibition greater than . . . 50%)
21 | NCCC(=O)NC1C(OCc2ccccc2)OC(COCc2ccc3ccccc3c2)C(O)C1OCc1ccccc1 (stereo not drawn) [Compound 403] | + (Indicates inhibition greater than . . . 50%)
22 | NCCC(=O)NC1C(OCc2ccccc2)OC(COCc2ccccc2)C(O)C1OCc1ccccc1 (stereo not drawn) [Compound 404] | + (Indicates inhibition greater than . . . 50%)
23 | NCCC(=O)NC1C(OCc2ccccc2)OC(COCc2ccc(Cl)cc2)C(O)C1OCc1ccccc1 (stereo not drawn) [Compound 405] | + (Indicates inhibition greater than . . . 50%)
24 | NCCCC(=O)NC1C(OCc2ccccc2)OC(COCc2ccc3ccccc3c2)C(O)C1OCc1ccc(Cl)cc1 (stereo not drawn) [Compound 406] | + (Indicates inhibition greater than . . . 50%)
25 | NCCCC(=O)NC1C(OCc2ccccc2)OC(COCc2ccc(Cl)cc2)C(O)C1OCc1ccc(Cl)cc1 (stereo not drawn) [Compound 407] | + (Indicates inhibition greater than . . . 50%)
26 | NCCCC(=O)NC1C(OCc2ccccc2)OC(COCc2ccc3ccccc3c2)C(O)C1OCc1ccc2ccccc2c1 (stereo not drawn) [Compound 408] | + (Indicates inhibition greater than . . . 50%)
27 | NCCCC(=O)NC1C(OCc2ccccc2)OC(COCc2ccccc2)C(O)C1OCc1ccc2ccccc2c1 (stereo not drawn) [Compound 409] | + (Indicates inhibition greater than . . . 50%)
28 | NCCCC(=O)NC1C(OCc2ccccc2)OC(COCc2ccc(Cl)cc2)C(O)C1OCc1ccc2ccccc2c1 (stereo not drawn) [Compound 410] | + (Indicates inhibition greater than . . . 50%)
29 | NCCCC(=O)NC1C(OCc2ccccc2)OC(COCc2ccc3ccccc3c2)C(O)C1OCc1ccccc1 (stereo not drawn) [Compound 411] | + (Indicates inhibition greater than . . . 50%)
30 | NCCCC(=O)NC1C(OCc2ccccc2)OC(COCc2ccc(Cl)cc2)C(O)C1OCc1ccccc1 (stereo not drawn) [Compound 412] | + (Indicates inhibition greater than . . . 50%)
31 | NCCC(=O)NC1C(OCc2ccc3ccccc3c2)OC(COCc2ccc3ccccc3c2)C(O)C1OCc1ccc(Cl)cc1 (stereo not drawn) [Compound 413] | + (Indicates inhibition greater than . . . 50%)

Row | SMILES | MC4 Inhibition at 4.0 Micromolar
32 | NCCC(=O)NC1C(OCc2ccc3ccccc3c2)OC(COCc2ccccc2)C(O)C1OCc1ccc(Cl)cc1 (stereo not drawn) [Compound 414] | + (Indicates inhibition greater than . . . 50%)
33 | NCCC(=O)NC1C(OCc2ccc3ccccc3c2)OC(COCc2ccc(Cl)cc2)C(O)C1OCc1ccc(Cl)cc1 (stereo not drawn) [Compound 415] | + (Indicates inhibition greater than . . . 50%)
34 | NCCC(=O)NC1C(OCc2ccc3ccccc3c2)OC(COCc2ccc3ccccc3c2)C(O)C1OCc1ccc2ccccc2c1 (stereo not drawn) [Compound 416] | + (Indicates inhibition greater than . . . 50%)
35 | NCCC(=O)NC1C(OCc2ccc3ccccc3c2)OC(COCc2ccccc2)C(O)C1OCc1ccc2ccccc2c1 (stereo not drawn) [Compound 417] | + (Indicates inhibition greater than . . . 50%)
36 | NCCC(=O)NC1C(OCc2ccc3ccccc3c2)OC(COCc2ccc(Cl)cc2)C(O)C1OCc1ccc2ccccc2c1 (stereo not drawn) [Compound 418] | + (Indicates inhibition greater than . . . 50%)
37 | NCCC(=O)NC1C(OCc2ccc3ccccc3c2)OC(COCc2ccc3ccccc3c2)C(O)C1OCc1ccccc1 (stereo not drawn) [Compound 419] | + (Indicates inhibition greater than . . . 50%)
38 | NCCC(=O)NC1C(OCc2ccc3ccccc3c2)OC(COCc2ccccc2)C(O)C1OCc1ccccc1 (stereo not drawn) [Compound 420] | + (Indicates inhibition greater than . . . 50%)
39 | NCCC(=O)NC1C(OCc2ccc3ccccc3c2)OC(COCc2ccc(Cl)cc2)C(O)C1OCc1ccccc1 (stereo not drawn) [Compound 421] | + (Indicates inhibition greater than . . . 50%)
40 | NCCCC(=O)NC1C(OCc2ccc3ccccc3c2)OC(COCc2ccc3ccccc3c2)C(O)C1OCc1ccc(Cl)cc1 (stereo not drawn) [Compound 422] | + (Indicates inhibition greater than . . . 50%)
41 | NCCCC(=O)NC1C(OCc2ccc3ccccc3c2)OC(COCc2ccccc2)C(O)C1OCc1ccc(Cl)cc1 (stereo not drawn) [Compound 423] | + (Indicates inhibition greater than . . . 50%)
42 | NCCCC(=O)NC1C(OCc2ccc3ccccc3c2)OC(COCc2ccc(Cl)cc2)C(O)C1OCc1ccc(Cl)cc1 (stereo not drawn) [Compound 424] | + (Indicates inhibition greater than . . . 50%)
43 | NCCCC(=O)NC1C(OCc2ccc3ccccc3c2)OC(COCc2ccc3ccccc3c2)C(O)C1OCc1ccc2ccccc2c1 (stereo not drawn) [Compound 425] | + (Indicates inhibition greater than . . . 50%)
44 | NCCCC(=O)NC1C(OCc2ccc3ccccc3c2)OC(COCc2ccccc2)C(O)C1OCc1ccc2ccccc2c1 (stereo not drawn) [Compound 426] | + (Indicates inhibition greater than . . . 50%)
45 | NCCCC(=O)NC1C(OCc2ccc3ccccc3c2)OC(COCc2ccc(Cl)cc2)C(O)C1OCc1ccc2ccccc2c1 (stereo not drawn) [Compound 427] | + (Indicates inhibition greater than . . . 50%)
46 | NCCCC(=O)NC1C(OCc2ccc3ccccc3c2)OC(COCc2ccc3ccccc3c2)C(O)C1OCc1ccccc1 (stereo not drawn) [Compound 428] | + (Indicates inhibition greater than . . . 50%)
47 | NCCCC(=O)NC1C(OCc2ccc3ccccc3c2)OC(COCc2ccccc2)C(O)C1OCc1ccccc1 (stereo not drawn) [Compound 429] | + (Indicates inhibition greater than . . . 50%)
48 | NCCCC(=O)NC1C(OCc2ccc3ccccc3c2)OC(COCc2ccc(Cl)cc2)C(O)C1OCc1ccccc1 (stereo not drawn) [Compound 430] | + (Indicates inhibition greater than . . . 50%)
